Laboratory results as given in patent publication US11191762B2, “Alkyl substituted triazole compounds as agonists of the APJ Receptor” (priority 2016, dated 2021).

Molecular target: human APJ receptor (Homo sapiens (Human), UniProt P35414)
Assay: biochemical
Type: biochemical
Conditions: [35S]GTPγS binding, membranes from CHO cells stably expressing human APJ receptor; read-out: Activity hAPJ SPA EC50 IP
Experimental: The human APJ receptor was cloned by polymerase chain reaction and the gene encoding the receptor was subcloned in pFLAG-CMV™-3 expression vector (Sigma, Saint Louis, Mo. USA) in-house at Amgen. A GTPγS binding assay was performed on membranes prepared from CHO cells stably expressing human APJ receptor. The optimum experimental conditions for the concentrations of GDP, MgCl2, and NaCl in the assay buffer were initially determined. The assay was performed in 9 μL assay buffer [20 mM HEPES, pH 7.5, 5 mM MgCl2, 100 mM NaCl and 0.1% (w/v) BSA], 1 μL of diluted test compound (starting with 0.75 mM, 2-fold serial dilution with DMSO, total 22 points), 10 μL of 18 µM GDP (final concentration of 3 μM GDP), 20 μL of […] membrane protein expressing human APJ receptor captured with WGA PS beads (final concentration of 5 μg per well), and 20 μL of 0.3 nM [^35S]GTPγS (final concentration is 0.1 nM [^35S]GTPγS)(Perkin Elmer Life and Analytical Sciences, Waltham USA).

Chain of human APJ receptor (P35414 whole entry): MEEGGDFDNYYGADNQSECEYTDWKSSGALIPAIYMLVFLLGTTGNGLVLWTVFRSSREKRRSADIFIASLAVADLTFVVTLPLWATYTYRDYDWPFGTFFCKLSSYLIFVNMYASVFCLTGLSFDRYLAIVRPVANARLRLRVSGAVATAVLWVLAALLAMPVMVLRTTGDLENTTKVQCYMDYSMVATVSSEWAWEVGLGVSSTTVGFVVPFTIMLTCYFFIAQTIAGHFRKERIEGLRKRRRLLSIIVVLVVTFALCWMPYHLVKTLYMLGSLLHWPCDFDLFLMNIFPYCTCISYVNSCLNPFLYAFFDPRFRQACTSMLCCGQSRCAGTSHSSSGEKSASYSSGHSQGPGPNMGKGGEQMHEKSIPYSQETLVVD

Molecule | EC50 [µM]
COc1ncnc(OC)c1-n1c(NS(=O)(=O)[C@@H](C)[C@H](O)c2ncc(C)cn2)nnc1C(C)(C)c1ccccc1 [Example 138.0] | 0.86
COc1ccc(Cl)c(-n2c(COC(F)F)nnc2NS(=O)(=O)[C@@H](C)[C@H](OC)c2ncc(Cl)cn2)c1 [Example 160.0] | 0.021
COc1cccc(OC)c1-n1c(Cn2ccccc2=O)nnc1NS(=O)(=O)[C@@H](C)[C@H](C)c1ncc(Cl)cn1 [Example 42.0, (2S,3R)-3-(5-chloro-2-pyrimidinyl)-N-(4-(2,6-dimethoxyphenyl)-5-((2-oxo-1(2H)-pyridinyl)methyl)-4H-1,2,4-triazol-3-yl)-2-butanesulfonamide] | 0.33
COc1cccc(OC)c1-n1c(C[C@@H]2CCCO2)nnc1NS(=O)(=O)[C@@H](C)[C@H](C)c1ncc(Cl)cn1 (mixture of isomers) [Example 46.0, (2S,3R)-3-(5-chloro-2-pyrimidinyl)-N-(4-(2,6-dimethoxyphenyl)-5-((2R)-tetrahydro-2-furanylmethyl)-4H-1,2,4-triazol-3-yl)-2-butanesulfonamide and (2S,3R)-3-(5-chloro-2-pyrimidinyl)-N-(4-(2,6-dimethoxyphenyl)-5-((2S)-tetrahydro-2-furanylmethyl)-4H-1,2,4-triazol-3-yl)-2-butanesulfonamide] | 0.33
COc1ncnc(OC)c1-n1c(Cc2ccccc2)nnc1NS(=O)(=O)[C@@H](C)[C@H](C)c1ncc(C)cn1 [Example 23.0, (2S,3R)-N-(5-benzyl-4-(4,6-dimethoxy-5-pyrimidinyl)-4H-1,2,4-triazol-3-yl)-3-(5-methyl-2-pyrimidinyl)-2-butanesulfonamide] | 0.4
COc1ncnc(OC)c1-n1c(Cc2ccccc2)nnc1NS(=O)(=O)[C@@H](C)[C@H](OC)c1ncc(Cl)cn1 [Example 22.0, (1R,2S)-N-(5-benzyl-4-(4,6-dimethoxy-5-pyrimidinyl)-4H-1,2,4-triazol-3-yl)-1-(5-chloro-2-pyrimidinyl)-1-methoxy-2-propanesulfonamide] | 0.12
CCCCc1nnc(NS(=O)(=O)[C@@H](C)[C@H](OC)c2ncc(C)cn2)n1-c1c(OC)cccc1OC [Example 175.0] | 0.0017
COCc1nnc(NS(=O)(=O)[C@@H](C)[C@H](C)c2cnc(OC)cn2)n1-c1c(OC)cccc1OC [Example 74.0, (2S,3R)-N-(4-(2,6-dimethoxyphenyl)-5-(methoxymethyl)-4H-l,2,4-triazol-3-yl)-3-(5-methoxypyrazin-2-yl)butane-2-sulfonamide] | 0.016
COc1ncnc(OC)c1-n1c(COC(F)F)nnc1NS(=O)(=O)[C@@H](C)[C@H](C)c1ncc(Cl)cn1 [Example 127.0, (2S,3R)-3-(5-chloropyrimidin-2-yl)-N-(5-((difluoromethoxy)methyl)-4-(4,6-dimethoxypyrimidin-5-yl)-4H-1,2,4-triazol-3-yl)butane-2-sulfonamide] | 0.038
COc1ncnc(OC)c1-n1c(NS(=O)(=O)[C@@H](C)[C@H](C)c2ncc(Cl)cn2)nnc1[C@@H](C)OC (single isomer, unassigned) [Example 5.0, (2S,3R)-3-(5-chloro-2-pyrimidinyl)-N-(4-(4,6-dimethoxy-5-pyrimidinyl)-5-((1R)-1-methoxyethyl)-4H-1,2,4-triazol-3-yl)-2-butanesulfonamide or (2S,3R)-3-(5-chloro-2-pyrimidinyl)-N-(4-(4,6-dimethoxy-5-pyrimidinyl)-5-((1S)-1-methoxyethyl)-4H-1,2,4-triazol-3-yl)-2-butanesulfonamide] | 0.31
COc1ncnc(OC)c1-n1c(CC(C)(C)C)nnc1NS(=O)(=O)[C@@H](C)[C@H](C)c1ncc(Cl)cn1 [Example 1.0, (2S,3R)-3-(5-chloro-2-pyrimidinyl)-N-(4-(4,6-dimethoxy-5-pyrimidinyl)-5-(2,2-dimethylpropyl)-4H-1,2,4-triazol-3-yl)-2-butanesulfonamide] | 0.24
COc1ncnc(OC)c1-n1c(NS(=O)(=O)[C@@H](C)[C@H](C)c2ncc(Cl)cn2)nnc1[C@@H](C)OC (single isomer, unassigned) [Example 4.0, (2S,3R)-3-(5-chloro-2-pyrimidinyl)-N-(4-(4,6-dimethoxy-5-pyrimidinyl)-5-((1R)-1-methoxyethyl)-4H-1,2,4-triazol-3-yl)-2-butanesulfonamide or (2S,3R)-3-(5-chloro-2-pyrimidinyl)-N-(4-(4,6-dimethoxy-5-pyrimidinyl)-5-((1S)-1-methoxyethyl)-4H-1,2,4-triazol-3-yl)-2-butanesulfonamide] | 0.27
(1R,2S)-1-(5-chloropyrimidin-2-yl)-1-methoxy-N-(4-(1-methylaclopropyl)-5-(((R)-tetrahydrofurcan-2-yl)methyl)-4H-l,2,4-triazol-3-yl)propane-2-sulfonainide or (1R,2S)-1-(5-chloroprimidin-2-yl)-1-methoxy-N-(4-(1-methylcyclopropyl)-5-(((S)-tetrahydrofuran-2-yl)methyl)-4H-l,2.4-triazol-3-yl)propane-2-sulfonamide [Example 56.0] | 0.42
COc1cccc(OC)c1-n1c(Cc2ccccc2)nnc1NS(=O)(=O)[C@@H](C)[C@H](C)c1ncc(Cl)cn1 [Example 14.0, (2S,3R)-N-(5-benzyl-4-(2,6-dimethoxyphenyl)-4H-1,2,4-triazol-3-yl)-3-(5-chloro-2-pyrimidinyl)-2-butanesulfonamide] | 0.0046
COc1cccc(OC)c1-n1c(CC2COC2)nnc1NS(=O)(=O)[C@@H](C)[C@H](C)c1ncc(Cl)cn1 [Example 34.0, (2S,3R)-3-(5-chloro-2-pyrimidinyl)-N-(4-(2,6-dimethoxyphenyl)-5-(3-oxetanylmethyl)-4H-1,2,4-triazol-3-yl)-2-butanesulfonamide] | 0.016
COc1cccc(OC)c1-n1c(Cc2ccc(F)cc2)nnc1NS(=O)(=O)[C@@H](C)[C@H](OC)c1ncc(C)cn1 [Example 50.0] | 0.94
COc1cccc(OC)c1-n1c(Cc2nc(C)cs2)nnc1NS(=O)(=O)[C@@H](C)[C@H](C)c1ncc(Cl)cn1 [Example 44.0, (2S,3R)-3-(5-chloro-2-pyrimidinyl)-N-(4-(2,6-dimethoxyphenyl)-5-((4-methyl-1,3-thiazol-2-yl)methyl)-4H-1,2,4-triazol-3-yl)-2-butanesulfonamide] | 0.036

Same assay, conditions: read-out: Activity hAPJ SPA EC50 IP

Molecule | EC50 [µM]
CCO[C@H](c1ncc(C)cn1)[C@H](C)S(=O)(=O)Nc1nnc(COC)n1-c1c(OC)cccc1OC [Example 73.0, (1R,2S)-N-(4-(2,6-dimethoxyphenyl)-5-(methoxymethyl)-4H-1,2,4-triazol-3-yl)-1-ethoxy-1-(5-methylpyrimidin-2-yl)propane-2-sulfonamide] | 0.0375
CCCCc1nnc(NS(=O)(=O)[C@@H](C)[C@H](OC)c2ncc(Cl)cn2)n1-c1c(OC)cccc1OC [Example 174.0] | 0.0003
COc1cccc(OC)c1-n1c(CO)nnc1NS(=O)(=O)[C@@H](C)[C@H](OC)c1ncc(Cl)cn1 [Example 64.0, (1R,2S)-1-(5-chloropyrimidin-2-yl)-N-(4-(2,6-dimethoxyphenyl)-5-(hydroxymethyl)-4H-1.2.4-triazol-3-yl)-1-methoxypropane-2-sulfonamide] | 0.02
COc1cccc(OC)c1-n1c(COC(C)C)nnc1NS(=O)(=O)[C@@H](C)[C@H](OC)c1ncc(Cl)cn1 [Example 69.0, (1R,2S)-1-(5-chloropyrimidin-2-yl)-N-(4-(2,6-dimethoxyphenyl)-5-(isopropoxymethyl)-4H-1,2,4-triazol-3-yl)-1-methoxypropane-2-sulfonamide] | 0.0012
